Where two headings read alike, the source gives them in different places.
Assays:
Mdm2 = Mdm2 (Homo sapiens, UniProt Q00987); assay: Mdm2 HTRF binding assay (Table 2)
Description: An HTRF binding assay was developed using a biotinylated peptide containing the Mdm2-binding domain of p53 and a recombinant GST-tagged N-terminus of Mdm2 containing the p53-binding domain. HTRF is a proximity-based fluorescence energy transfer (FRET) assay that takes advantage of the unique time-resolved fluorescence of the lanthanide chelates, such as terbium and europium. HTRF IC50 values are provided for all key compounds (FIG. 13C, FIG. 19B, and Table 2).

[1] = biological target: T1, human cereblon (CRBN) complex (Homo sapiens, UniProt Q96SW2); assay: HTRF binding assay for Cereblon (Table 2)
T1 construct: purchased R & D systems
Description: Biochemical assays in 384-well format have established to assess the binding of newly synthesized PROTACs to the appropriate E3 ligase using HTRF technology. In these assays an anti-HIS antibody conjugated to terbium was used as the donor fluor, and either a Cy5 labeled small molecule probe, or a biotinylated peptide that is bound to a streptavidin acceptor.
Cereblon: Recombinant human cereblon (CRBN) complex, including CUL4A, RBX1, DDB1 and CRBN is purchased from R & D systems. This four-member protein complex has an N-terminal HIS tag on the CUL4A subunit. The CRBN complex is diluted in assay buffer containing anti-HIS-Tb Cryptate Gold (CisBio) and is added to low volume 384-well plates. Test compounds in 100% DMSO are added to the plates followed by the Cy5-labeled lenolidamide probe. After 1 hour the HTRF signal is measured on the Envision. Data are normalized to % inhibition. The typical signal-to-noise is 5:1. Bi-functional molecules containing the Cereblon ligands are tested in TABLE 2 (see YX-02-041).

mut p53 MDA-MD-231 cells = assay: Live cell count with CellTag700 Stain in ICW format; conditions: after 24 h and 48 h treatment
Description: Cells are seeded in 96 half area well plates (black clear bottom) and cultured overnight. Then they are treated with compounds, fixed with 4% paraformaldehyde for 20 minutes, and permeabilized in 0.1% Triton. They are then treated with the primary antibody and secondary antibody conjugated to IRDye800CW or treated with CellTag 700 Stain. The plates are then scanned on the OdysseyCLX and the data processed to provide a dose response curve.
Since genetic deletion of Mdm2 induces p73 and induces apoptosis in p53 mutant and deficient cancer cells, YX-02-030 and YX-02-228 were evaluated for their effect on cell viability. First, the CellTag700 Stain was utilized to count the number of live cells in the ICW format.

[2] = In vivo tolerability, nude mice; parameters: species or system mouse; conditions: YX-02-030 50 mg/kg IP, YX-02-228 30 mg/kg IP, once daily
Description: FIGS. 25A & 25B show the in vivo tolerability tests conducted with the 2 lead Mdm2 PROTACs to evaluate tolerated doses and effects on normal tissues. Nude mice were treated with Mdm2 PROTACs, YX-02-030 (50 mg/kg; IP) and YX-02-228 (30 mg/kg; IP) once daily for 14 days. […] Fresh, surgically-resected tumor from five TNBC patients was obtained, and 80% were from Black/African American patients.
In vivo tolerability tests were conducted with the 2 lead Mdm2 PROTACs to evaluate tolerated doses and effects on normal tissues. Nude mice were treated with Mdm2 PROTACs, YX-02-030 (50 mg/kg; IP) and YX-02-228 (30 mg/kg; IP) once daily for 8 days.

Raji = assay: Cell death of other cancer cell lines: Raji; format: cell-based; conditions: Homo sapiens, Burkitt lymphoma, values may change up to ±1-2 μM depending on the cell density
Description: (§1) The PROTACs prepared herein were tested for their use in other cancer cell lines to determine activity in multiple different types of cancer.

SU-DHL-6 = assay: Cell death of other cancer cell lines: SU-DHL-6; format: cell-based; conditions: Homo sapiens; SU-DHL-6, Diffuse large B cell lymphoma
Description: as §1

SU-DHL-8 = assay: Cell death of other cancer cell lines: SU-DHL-8; format: cell-based; conditions: Homo sapiens; SU-DHL-8, Diffuse large B cell lymphoma
Description: as §1

HH = assay: Cell death of other cancer cell lines: HH; format: cell-based; conditions: Homo sapiens, T cell lymphoma
Description: as §1

Hut-78 = assay: Cell death of other cancer cell lines: Hut-78; format: cell-based; conditions: Homo sapiens, HuT78; Hut-78, T cell lymphoma
Description: as §1

SEM cells = assay: Cell death of other cancer cell lines: SEM; format: cell-based; conditions: Homo sapiens, B-ALL
Description: as §1

RS4; 11 = assay: Cell death of other cancer cell lines: RS4; 11; format: cell-based; conditions: Homo sapiens, 11, B-ALL
Description: as §1

MOLT1 = assay: Cell death of other cancer cell lines: MOLT1; format: cell-based; conditions: Homo sapiens; MOLT1, T-ALL
Description: as §1

SUP-T1 = assay: Cell death of other cancer cell lines: SUP-T1; format: cell-based; conditions: Homo sapiens; SUP-T1, T-ALL
Description: as §1

H1299 = assay: Cell death of other cancer cell lines: H1299; format: cell-based; conditions: Homo sapiens, NCI-H1299; H1299, Lung adenocarcinoma
Description: as §1

PC9 = assay: Cell death of other cancer cell lines: PC9; format: cell-based; conditions: Homo sapiens, PC-9; PC9, Lung adenocarcinoma
Description: as §1

SKOV3 = assay: Cell death of other cancer cell lines: SKOV3; format: cell-based; conditions: Homo sapiens, SK-OV-3; SKOV3, Ovarian
Description: as §1

OVCAR4 = assay: Cell death of other cancer cell lines: OVCAR4; format: cell-based; conditions: Homo sapiens, OVCAR-4; OVCAR4, Ovarian
Description: as §1

KPCA = assay: Cell death of other cancer cell lines: KPCA; format: cell-based; conditions: Ovarian, Mouse
Description: as §1

Chain of Mdm2 (Q00987 26-109 limits assumed): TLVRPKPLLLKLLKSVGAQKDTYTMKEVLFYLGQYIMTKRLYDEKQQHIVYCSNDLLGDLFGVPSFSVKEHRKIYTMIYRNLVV
T1 sequence (Q96SW2 whole entry): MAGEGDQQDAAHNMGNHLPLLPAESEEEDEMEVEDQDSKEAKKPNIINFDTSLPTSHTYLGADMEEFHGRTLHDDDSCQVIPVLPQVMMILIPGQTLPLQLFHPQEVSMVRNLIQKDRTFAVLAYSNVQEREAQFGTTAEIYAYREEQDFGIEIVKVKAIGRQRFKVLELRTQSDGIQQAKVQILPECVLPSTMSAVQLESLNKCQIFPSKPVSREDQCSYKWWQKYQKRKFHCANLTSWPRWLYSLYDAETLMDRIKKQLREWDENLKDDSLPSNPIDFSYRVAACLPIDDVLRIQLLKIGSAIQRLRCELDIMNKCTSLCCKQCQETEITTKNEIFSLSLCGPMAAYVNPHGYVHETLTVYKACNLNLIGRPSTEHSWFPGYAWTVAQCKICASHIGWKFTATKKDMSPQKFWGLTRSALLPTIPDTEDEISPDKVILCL
T1 sequence (Q16531 whole entry partner): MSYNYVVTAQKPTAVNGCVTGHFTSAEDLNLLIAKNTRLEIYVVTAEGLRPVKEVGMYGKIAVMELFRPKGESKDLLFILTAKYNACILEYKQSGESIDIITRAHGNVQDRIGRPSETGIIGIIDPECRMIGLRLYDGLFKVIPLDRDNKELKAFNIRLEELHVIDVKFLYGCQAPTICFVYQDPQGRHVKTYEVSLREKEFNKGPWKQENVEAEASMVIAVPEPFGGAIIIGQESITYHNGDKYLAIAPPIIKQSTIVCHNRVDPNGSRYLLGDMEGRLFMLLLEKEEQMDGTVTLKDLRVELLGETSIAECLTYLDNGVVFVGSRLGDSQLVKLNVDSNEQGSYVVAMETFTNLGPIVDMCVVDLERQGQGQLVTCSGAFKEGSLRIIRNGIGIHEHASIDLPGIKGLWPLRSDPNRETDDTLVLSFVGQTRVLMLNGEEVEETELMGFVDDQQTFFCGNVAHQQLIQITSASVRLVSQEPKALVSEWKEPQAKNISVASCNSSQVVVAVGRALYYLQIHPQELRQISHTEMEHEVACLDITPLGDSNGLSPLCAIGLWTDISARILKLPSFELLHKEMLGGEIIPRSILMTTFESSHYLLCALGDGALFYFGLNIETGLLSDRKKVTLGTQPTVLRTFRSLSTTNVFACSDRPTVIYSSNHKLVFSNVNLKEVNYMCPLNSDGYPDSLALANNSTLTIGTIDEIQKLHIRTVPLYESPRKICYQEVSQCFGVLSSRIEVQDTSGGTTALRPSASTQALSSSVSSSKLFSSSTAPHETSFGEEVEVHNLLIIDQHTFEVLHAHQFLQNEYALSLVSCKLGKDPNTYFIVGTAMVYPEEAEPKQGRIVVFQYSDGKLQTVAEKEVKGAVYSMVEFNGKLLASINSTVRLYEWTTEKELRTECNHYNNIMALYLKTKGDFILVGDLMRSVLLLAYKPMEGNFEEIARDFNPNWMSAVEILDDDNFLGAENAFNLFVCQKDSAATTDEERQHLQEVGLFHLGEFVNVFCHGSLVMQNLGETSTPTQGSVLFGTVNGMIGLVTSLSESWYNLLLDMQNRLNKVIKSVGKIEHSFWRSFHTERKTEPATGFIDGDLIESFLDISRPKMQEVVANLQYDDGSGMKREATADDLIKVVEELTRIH
T1 sequence (Q13619 whole entry partner): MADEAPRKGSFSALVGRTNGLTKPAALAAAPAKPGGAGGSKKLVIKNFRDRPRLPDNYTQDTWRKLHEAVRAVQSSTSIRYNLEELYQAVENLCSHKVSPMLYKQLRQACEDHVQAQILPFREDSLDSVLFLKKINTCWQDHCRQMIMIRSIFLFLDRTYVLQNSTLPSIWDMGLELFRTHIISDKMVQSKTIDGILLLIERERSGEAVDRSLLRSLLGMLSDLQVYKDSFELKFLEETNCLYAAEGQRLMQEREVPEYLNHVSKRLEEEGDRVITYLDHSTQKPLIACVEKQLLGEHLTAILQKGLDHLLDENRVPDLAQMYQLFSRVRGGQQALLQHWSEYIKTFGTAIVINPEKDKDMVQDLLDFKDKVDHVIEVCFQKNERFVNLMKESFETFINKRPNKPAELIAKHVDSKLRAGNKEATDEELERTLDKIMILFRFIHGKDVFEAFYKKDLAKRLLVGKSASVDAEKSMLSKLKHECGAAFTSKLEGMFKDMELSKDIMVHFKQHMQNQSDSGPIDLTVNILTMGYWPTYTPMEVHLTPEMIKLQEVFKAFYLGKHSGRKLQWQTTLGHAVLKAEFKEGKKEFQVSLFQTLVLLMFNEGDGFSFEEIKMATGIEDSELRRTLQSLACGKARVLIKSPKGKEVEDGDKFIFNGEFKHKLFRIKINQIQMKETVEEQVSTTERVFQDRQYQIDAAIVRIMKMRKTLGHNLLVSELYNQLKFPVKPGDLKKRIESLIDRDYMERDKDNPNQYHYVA
T1 sequence (P62877 whole entry partner): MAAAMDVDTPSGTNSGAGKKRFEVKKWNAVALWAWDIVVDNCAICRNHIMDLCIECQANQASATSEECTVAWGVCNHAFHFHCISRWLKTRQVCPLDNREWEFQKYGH

Structure (SMILES)	IC50 [1]	cytotoxic effect, number of live cells (mut p53 MDA-MD-231 cells)	blood counts [2]	body weight [2]	clinical observations for spleen and bone marrow [2]	IC50 (Raji)	IC50 (SU-DHL-6)	IC50 (SU-DHL-8)	IC50 (HH)	IC50 (Hut-78)	IC50 (SEM cells)	IC50 (RS4; 11)	IC50 (MOLT1)	IC50 (SUP-T1)	IC50 (H1299)	IC50 (PC9)	IC50 (SKOV3)	IC50 (OVCAR4)	IC50 (KPCA)	other results
CCOc1cc(C(C)(C)C)ccc1C1=N[C@](C)(c2ccc(Cl)cc2)[C@](C)(c2ccc(Cl)cc2)N1C(=O)N1CCN(CC(=O)NCCOCCOCCOCC(=O)N[C@H](C(=O)N2C[C@H](O)C[C@H]2C(=O)NCc2ccc(-c3scnc3C)cc2)C(C)(C)C)CC1 (racemic) [YX-02-030]	> 10 µM	potent cytotoxic effects	no significant change	no significant change in body weight	no adverse clinical observations	2.8 µM	3.6 µM	1.9 µM	6.3 µM	9 µM	3.2 µM	1900 nM	2600 nM	5.7 µM	4.2 µM	4.5 µM	5.7 µM	4.6 µM	2.9 µM	IC50 (Mdm2): 14 nM
CCOc1cc(C(C)(C)C)ccc1C1=N[C@](C)(c2ccc(Cl)cc2)[C@](C)(c2ccc(Cl)cc2)N1C(=O)N1CCN(CC(=O)NCCCNC(=O)COc2ccc3c(c2)CN(C(=O)[C@H](NC(=O)[C@@H](C)NC)C(C)(C)C)[C@@H](C(=O)N[C@H]2CCCc4ccccc42)C3)CC1 [YX-02-228, (R)-7-(2-((3-(2-(4-((4R,5S)-2-(4-(tert-butyl)-2-ethoxyphenyl)-4,5-bis(4-chlorophenyl)-4,5-dimethyl-4,5-dihydro-1H-imidazole-1-carbonyl)piperazin-1-yl)acetamido)propyl)amino)-2-oxoethoxy)-2-((R)-3,3-dimethyl-2-((R)-2-(methylamino)propanamido)butanoyl)-N-((S)-1,2,3,4-tetrahydronaphthalen-1-yl)-1,2,3,4-tetrahydroisoquinoline-3-carboxamide]	> 10 µM	potent cytotoxic effects	no significant change	no significant change in body weight	no adverse clinical observations	5.9 µM	2.9 µM	4.6 µM	5.5 µM	8.8 µM	4.2 µM	2500 nM	2700 nM	6 µM	5.3 µM	4.6 µM	3.2 µM	4.8 µM	3.4 µM	IC50 (Mdm2; read-out: Mdm2 HTRF IC50): 13 nM
